Target: D(3) dopamine receptor (Homo sapiens, UniProt P35462)
Experiment: Agonist activity at human D3 receptor expressed in CHO cells assessed as stimulation of […] mitogenesis

Chain of D(3) dopamine receptor (P35462 as listed by the source): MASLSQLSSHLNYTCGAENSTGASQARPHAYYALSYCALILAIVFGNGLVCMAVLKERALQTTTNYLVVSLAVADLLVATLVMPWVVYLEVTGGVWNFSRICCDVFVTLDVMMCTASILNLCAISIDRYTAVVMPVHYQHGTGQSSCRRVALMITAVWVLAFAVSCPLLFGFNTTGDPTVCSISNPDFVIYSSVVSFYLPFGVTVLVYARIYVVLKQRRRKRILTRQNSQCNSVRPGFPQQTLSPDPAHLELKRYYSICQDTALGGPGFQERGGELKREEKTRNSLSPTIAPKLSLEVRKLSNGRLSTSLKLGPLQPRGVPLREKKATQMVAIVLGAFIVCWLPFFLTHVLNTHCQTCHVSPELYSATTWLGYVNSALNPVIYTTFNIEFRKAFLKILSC

Work on `CCc1cc(Cl)c(OC)c(N2CCN(C[C@@H](O)CCNC(=O)c3cc4ccccc4[nH]3)CC2)c1` yielded an EC50 of over 6.8 µM.

`CCc1cc(Cl)c(OC)c(N2CCN(C[C@H](O)CCNC(=O)c3cc4ccccc4[nH]3)CC2)c1` showed an EC50 of over 3.2 µM.
